Source: US11589603B2, “Powdered nutritional product containing branched-chain amino acids and a sugar alcohol” (Abbott Laboratories, priority 2015, dated 2023)
Where “and” joins values, the source holds several entries; their conditions need not be identical. Equal entries are not always repeated.

Experiments:
[1] = Example 5: effect of inositol isomers on dissolution of L-leucine, LC/UV of filtrate; format: physicochemical; conditions: 3.50 g L-leucine with 0.1 g/16 oz. inositol isomer, water 21° C., 400 rpm
Description: The LC/UV system used to perform the tests comprised the following: 1) Column: YMC ODS-AQ, 4.6 x 250 mm, 5 μm, Waters […]; 2) Mobile Phase: Milli-Q Plus water; 3) Flow Rate: 0.4 mL/minute; 4) Temperature: 40° C.; 5) Detection: UV at 192 nm; 6) Injection: 2 μL of filtrate; and 7) Run Time: 20 minutes.

[2] = Example 4: aqueous dissolution of branched-chain amino acids in a powdered nutritional product with varying myo-inositol, LC/UV of filtrate; format: physicochemical; conditions: powdered nutritional product; particularly evident at 30 seconds across all concentrations
Description: The LC/UV system used to perform the tests comprised the following: 1) Column: YMC ODS-AQ, 4.6 x 250 mm, 5 μm, Waters P/N AQ12S052546WT; 2) Mobile Phase: Milli-Q Plus water; 3) Flow Rate: 0.4 mL/minute; 4) Temperature: 40° C.; 5) Detection: UV at 192 nm; 6) Injection: 2 μL of filtrate; and 7) Run Time: 20 minutes.
Example 4 evaluates the effect that myo-inositol concentration has on the aqueous dissolution of branched-chain amino acids (valine, isoleucine, and leucine) in a powdered nutritional product. One serving (17.6 grams) of the powdered nutritional product contains 7.00 grams of a branched-chain amino acid blend comprising 50 wt. % leucine, 25 wt. % isoleucine, and 25 wt. % valine. A serving of the powdered nutritional product with a specified amount of myo-inositol was added to 16 fluid ounces of Milli-Q Plus water at 21° C. and stirred at 400 rpm. At each specified time point, an aliquot was obtained and filtered through a 0.45 μm PTFE membrane (Pall Life Sciences, Acrodisc CR 25, P/N 4501), and the filtrate was tested for valine, isoleucine, and leucine using the LC/UV method as described in Example 3.

O[C@H]1[C@H](O)[C@@H](O)[C@H](O)[C@@H](O)[C@H]1O [myo-inositol]
Leu dissolved at 30 seconds (g/16 oz.) ([1]; 30 seconds): 0.465 g/16 oz. and 0.495 g/16 oz.
Leu dissolved at 60 seconds (% of total Leu) ([1]; 60 seconds): 23.9 % of total Leu and 22.3 % of total Leu
Leu dissolved at 60 seconds (g/16 oz.) ([1]; 60 seconds): 0.838 g/16 oz. and 0.781 g/16 oz.
effect of addition of myo-inositol on rate of dissolution of the branched-chain amino acids [2]: enhanced the rate of dissolution
